This is an account of results in PMC9298037 (Chemmedchem, 2021).

Assay [1] concerns the target T1, MELK (Homo sapiens, UniProt Q14680). Briefly: biochemical. The settings on record: for inhibition at 10 µM: read-out: Inh. %, single-point screen at 10uM concentration, Table S1.
Assay [2] concerns the target T1, MELK.

Where two headings read alike, the source gives them in different places.

T1 sequence (Q14680 whole entry): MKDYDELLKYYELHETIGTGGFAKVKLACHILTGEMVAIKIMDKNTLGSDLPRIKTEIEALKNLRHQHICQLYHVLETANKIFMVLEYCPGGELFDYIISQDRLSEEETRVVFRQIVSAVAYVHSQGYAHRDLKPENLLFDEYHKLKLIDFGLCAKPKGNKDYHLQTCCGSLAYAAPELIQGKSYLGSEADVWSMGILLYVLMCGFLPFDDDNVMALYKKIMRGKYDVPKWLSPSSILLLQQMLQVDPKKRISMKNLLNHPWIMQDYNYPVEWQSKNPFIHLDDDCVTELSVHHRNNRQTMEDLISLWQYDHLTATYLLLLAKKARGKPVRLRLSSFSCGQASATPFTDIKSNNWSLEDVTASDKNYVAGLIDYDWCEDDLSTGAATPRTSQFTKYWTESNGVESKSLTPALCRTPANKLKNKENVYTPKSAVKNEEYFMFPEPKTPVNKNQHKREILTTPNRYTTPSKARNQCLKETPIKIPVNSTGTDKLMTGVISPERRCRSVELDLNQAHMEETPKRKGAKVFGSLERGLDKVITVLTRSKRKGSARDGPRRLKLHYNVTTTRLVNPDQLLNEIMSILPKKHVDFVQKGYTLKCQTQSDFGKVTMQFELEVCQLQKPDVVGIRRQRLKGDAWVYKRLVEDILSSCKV

Regarding `COc1ccc(-c2nc3c(C)c4ccccc4cn3n2)cc1` [Compound 4, 2‐(4‐methoxyphenyl)‐10‐methyl‐[1,2,4]triazolo[1,5‐b]isoquinoline], in assay [1], the IC50 is 3.67 µM and the inhibition at 10 µM is more than 40%.

In the case of `COc1cccc(-c2nc3c(C)c4ccccc4cn3n2)c1` [Compound 5, 2‐(3‐methoxyphenyl)‐10‐methyl‐[1,2,4]triazolo[1,5‐b]isoquinoline], in assay [1], the IC50 is 4.93 µM and the inhibition at 10 µM is more than 40%.

Turning to `Cc1c2ccccc2cn2nc(-c3ccc(C(F)(F)F)cc3)nc12` [Compound 8, 10‐methyl‐2‐(4‐(trifluoromethyl)phenyl)‐[1,2,4]triazolo[1,5‐b]isoquinoline], the inhibition at 10 µM in assay [1] was more than 40%.

For the molecule `Cc1c2ccccc2cn2nc(-c3ccccn3)nc12` [Compound 11, 10‐methyl‐2‐(pyridin‐2‐yl)‐[1,2,4]triazolo[1,5‐b]isoquinoline], half-maximal inhibition in assay [1] (IC50) was put at 6.3 µM.

For the molecule `Cc1c2ccccc2cn2nc(-c3ccc(Cl)cc3Cl)nc12` [Compound 13, 2‐(2,4‐dichlorophenyl)‐10‐methyl‐[1,2,4]triazolo[1,5‐b]isoquinoline], in assay [1], inhibition was half-maximal at 24.1 µM (IC50).

Turning to `CCc1c2ccccc2cn2nc(-c3ccc(Cl)cc3)nc12` [Compound 17, 2‐(4‐chlorophenyl)‐10‐ethyl‐[1,2,4]triazolo[1,5‐b]isoquinoline], in assay [1], the IC50 was more than 3.7 µM.

On to `CCc1c2ccccc2cn2nc(-c3ccc(OC)cc3)nc12` [Compound 18, 10‐ethyl‐2‐(4‐methoxyphenyl)‐[1,2,4]triazolo[1,5‐b]isoquinoline], for which, in assay [2] (MELK), the “inhibitory activity (in words)” value is recorded as “sub‐micromolar”. In addition, the activity boost in assay [2] (over 3-methoxyphenyl counterpart 19) was found to be 2.5 fold; in assay [2] (over 10-methyl counterpart 4), 4.5 fold. The same molecule had an IC50 in assay [1] of 0.794 µM.

The molecule `CCc1c2ccccc2cn2nc(-c3cccc(OC)c3)nc12` [Compound 19, 10‐ethyl‐2‐(3‐methoxyphenyl)‐[1,2,4]triazolo[1,5‐b]isoquinoline] displayed an activity boost in assay [2] (in comparison to compound 5 (10-ethyl vs 10-methyl)) of 2.5 fold. For the same molecule, in assay [1], the IC50 was 2.04 µM and the inhibition at 10 µM is more than 40%.

Regarding `c1ccc(-c2nc3c4ccccc4ccn3n2)cc1` [ID 1855, 2‐phenyl‐[1,2,4]triazolo[3,2‐a]isoquinoline], in assay [1], the inhibition at 10 µM was more than 40%.

As usually defined, the IC50 is the concentration that gives 50% inhibition. The low end stands for higher potency, the high end for lower potency.
